Patent US20240376097A1, “BCL-2 Inhibitor” (BeiGene Ltd., priority 2020, published 2024)

Columns and labels:
[1] = tested on: BCL-2 G101V knock-in cell line H96 (derive from RS4;11); experiment: Bcl 2-G101V Knock-In RS4;11 Cell Proliferation Assay; format: cell-based; conditions: Homo sapiens, RS4;11 Bcl-2 G101V knock-in clone H96, 48 hrs, CellTiter-GLO, read-out: Cellular proliferation assay (IC50, nM) RS4
Procedure, shortened: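 H96, a CRISPR-generated RS4;11 clone carrying BCL2-G101V knock-in (WES/RNA-seq validated), seeded 50,000 per well and exposed 48 h at 37 °C to 10-point dilutions topping at 1 or 10 μM. Viability by CellTiter-Glo luminescence; mean IC50.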

[2] = tested on: RS4;11 (BCL-2 dependent acute lymphoblastic leukemia cell line); experiment: RS4;11 Cell Proliferation Assay; format: cell-based; conditions: Homo sapiens, RS4-11, RS4;11 cells, read-out: Cellular proliferation assay (IC50, nM) RS4
Procedure, shortened: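 RS4;11 cells, 50,000 per well in RPMI-1640 with 10% FBS, treated 48 h at 37 °C with a 10-point dilution series topping at 1 μM. Viability read by CellTiter-Glo ATP luminescence; mean IC50 reported.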

[3] = target: Recombinant human Bcl-2 protein (Homo sapiens (Human), UniProt P10415); experiment: Bcl-2 TR-FRET Assay; format: binding; conditions: Bcl-2 wild type, TR-FRET; read-out: Biochemical assay (IC50, nM) Bcl-2 WT
Procedure, shortened: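 Compounds were pre-incubated with 0.05 nM recombinant Bcl-2 for 0.5 h at room temperature in potassium phosphate buffer, pH 7.5. FITC-Bak peptide (0.5 nM) and Tb-cryptate antibody were then added for 1 h. Percent inhibition from TR-FRET signals gave IC50 values.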

[4] = tested on: recombinant human Bcl-2-G101V protein; experiment: Bcl-2-G101V TR-FRET Assay; format: binding; conditions: ratio of biochemical IC50 Bcl-2 G101V / Bcl-2 WT
Procedure, shortened: (§1)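 Ex337/em490 & 520 nm TR-FRET; % inhibition of Bcl-2-G101V–ligand interaction from 490:520 ratio vs. increasing compound conc.; IC50 by 4-parameter logistic fit.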

[5] = target: recombinant human Bcl-2-G101V protein (Homo sapiens (Human), UniProt P10415, G101V); experiment: Bcl-2-G101V TR-FRET Assay; format: binding; conditions: Bcl-2 G101V mutant, TR-FRET; read-out: Biochemical assay (IC50, nM) Bcl-2 G101V
Procedure, shortened: as §1

| SMILES | IC50 [1] [nM] | IC50 [2] [nM] | IC50 [3] [nM] | Ratio of Bcl-2 G101V/WT [4] | IC50 [5] [nM] |
| --- | --- | --- | --- | --- | --- |
| COc1cc(CN2CCN(C3CC4(C3)CN(c3ccc(C(=O)NS(=O)(=O)c5ccc(NC[C@H]6CC[C@](C)(O)CC6)c([N+](=O)[O-])c5)c(Oc5cnc6[nH]ccc6c5)c3)C4)[C@H](c3ccccc3C(C)C)C2)cc2occc12 [Example 331, 2-((1H-pyrrolo[2,3-b]pyridin-5-yl)oxy)-N-((4-((((1r,4r)-4-hydroxy-4-methylcyclohexyl)methyl)amino)-3-nitrophenyl)sulfonyl)-4-(6-((R)-2-(2-isopropylphenyl)-4-((4-methoxybenzofuran-6-yl)methyl)piperazin-1-yl)-2-azaspiro[3.3]heptan-2-yl)benzamide] | 0.69 | 0.16 | 0.29 | 2.1 | 0.62 |
| COc1cc(CN2CCN(C3CC4(C3)CN(c3ccc(C(=O)NS(=O)(=O)c5ccc(NC[C@H]6CC[C@](C)(O)CC6)c([N+](=O)[O-])c5)c(Oc5cnc6[nH]cc(F)c6c5)c3)C4)[C@H](c3ccccc3C(C)C)C2)cc2occc12 [Example 332, 2-((3-fluoro-1H-pyrrolo[2,3-b]pyridin-5-yl)oxy)-N-((4-((((1r,4r)-4-hydroxy-4-methylcyclohexyl)methyl)amino)-3-nitrophenyl)sulfonyl)-4-(6-((R)-2-(2-isopropylphenyl)-4-((4-methoxybenzofuran-6-yl)methyl)piperazin-1-yl)-2-azaspiro[3.3]heptan-2-yl)benzamide] | 0.54 | 0.17 | 0.7 | 1.6 | 1.1 |
| COc1cc(CN2CCN(C3CC4(C3)CN(c3ccc(C(=O)NS(=O)(=O)c5ccc(NC[C@H]6CC[C@](C)(O)CC6)c([N+](=O)[O-])c5)c(Oc5cnc6[nH]cc(F)c6c5)c3)C4)[C@H](c3ccccc3C(C)C)C2)cc2c1OCCC2(C)C [Example 333, 2-((3-fluoro-1H-pyrrolo[2,3-b]pyridin-5-yl)oxy)-N-((4-((((1r,4r)-4-hydroxy-4-methylcyclohexyl)methyl)amino)-3-nitrophenyl)sulfonyl)-4-(6-((R)-2-(2-isopropylphenyl)-4-((8-methoxy-4,4-dimethylchroman-6-yl)methyl)piperazin-1-yl)-2-azaspiro[3.3]heptan-2-yl) benzamide] | 0.26 | 0.13 | 0.11 | 3.2 | 0.37 |
| COc1cc(CN2CCN(C3CC4(C3)CN(c3ccc(C(=O)NS(=O)(=O)c5ccc(NC[C@H]6CC[C@](C)(O)CC6)c([N+](=O)[O-])c5)c(Oc5cnc6[nH]ccc6c5)c3)C4)[C@H](c3ccccc3C(C)C)C2)cc2c1OCCC2(C)C [Example 334] | 0.65 | 0.17 | 0.12 | 2.8 | 0.33 |
| COc1cc(CN2CCN(C3CC4(C3)CN(c3ccc(C(=O)NS(=O)(=O)c5ccc(NC[C@H]6CC[C@](C)(O)CC6)c([N+](=O)[O-])c5)c(Oc5cnc6[nH]cc(F)c6c5)c3)C4)[C@H](c3ccccc3C(C)C)C2)cc2c1OCCCO2 [Example 335, 2-((3-fluoro-1H-pyrrolo[2,3-b]pyridin-5-yl)oxy)-N-((4-((((1r,4r)-4-hydroxy-4-methylcyclohexyl)methyl)amino)-3-nitrophenyl)sulfonyl)-4-(6-((R)-2-(2-isopropylphenyl)-4-((9-methoxy-3,4-dihydro-2H-benzo[b][1,4]dioxepin-7-yl)methyl)piperazin-1-yl)-2-azaspiro[3.3]heptan-2-yl) benzamide] | 0.34 | 0.17 | 0.06 | 2.6 | 0.15 |
| COc1cc(CN2CCN(C3CC4(C3)CN(c3ccc(C(=O)NS(=O)(=O)c5ccc(NC[C@H]6CC[C@](C)(O)CC6)c([N+](=O)[O-])c5)c(Oc5cnc6[nH]ccc6c5)c3)C4)[C@H](c3ccccc3C(C)C)C2)cc2c1OC(C)(C)CC2 [Example 336, 2-((1H-pyrrolo[2,3-b]pyridin-5-yl)oxy)-N-((4-((((1r,4r)-4-hydroxy-4-methylcyclohexyl)methyl)amino)-3-nitrophenyl)sulfonyl)-4-(6-((R)-2-(2-isopropylphenyl)-4-((8-methoxy-2,2-dimethylchroman-6-yl)methyl)piperazin-1-yl)-2-azaspiro[3.3]heptan-2-yl) benzamide] | 1.1 | 0.2 | 0.09 | 4.2 | 0.38 |
| COc1cc(CN2CCN(C3CC4(C3)CN(c3ccc(C(=O)NS(=O)(=O)c5ccc(NC[C@H]6CC[C@](C)(O)CC6)c([N+](=O)[O-])c5)c(Oc5cnc6[nH]cc(F)c6c5)c3)C4)[C@H](c3ccccc3C(C)C)C2)ccc1C1CCC1 [Example 341, 4-(6-((R)-4-(4-cyclobutyl-3-methoxybenzyl)-2-(2-isopropylphenyl)piperazin-1-yl)-2-azaspiro[3.3]heptan-2-yl)-2-((3-fluoro-1H-pyrrolo[2,3-b]pyridin-5-yl)oxy)-N-((4-((((1r,4r)-4-hydroxy-4-methylcyclohexyl)methyl)amino)-3-nitrophenyl)sulfonyl)benzamide] | 0.68 | 0.12 | 1.6 | 2.8 | 4.5 |
| COc1cc(CN2CCN(C3CC4(C3)CN(c3ccc(C(=O)NS(=O)(=O)c5ccc(NC[C@H]6CC[C@](C)(O)CC6)c([N+](=O)[O-])c5)c(Oc5cnc6[nH]ccc6c5)c3)C4)[C@H](c3ccccc3C(C)C)C2)ccc1C1CCC1 [Example 342, 2-((1H-pyrrolo[2,5-b]pyridin-5-yl)oxy)-4-(6-((R)-4-(4-cyclobutyl-3-methoxybenzyl)-2-(2-isopropylphenyl)piperazin-1-yl)-2-azaspiro[3.3]heptan-2-yl)-N-((4-((((1r,4r)-4-hydroxy-4-methylcyclohexyl)methyl)amino)-3-nitrophenyl)sulfonyl)benzamide] | 2 | 0.28 | 0.97 | 2.9 | 3.3 |
| COC12CC3CC(CC(CN4CCN(C5CC6(C5)CN(c5ccc(C(=O)NS(=O)(=O)c7ccc(NC[C@H]8CC[C@](C)(O)CC8)c([N+](=O)[O-])c7)c(Oc7cnc8[nH]cc(F)c8c7)c5)C6)[C@H](c5ccccc5C(C)C)C4)(C3)C1)C2 [Example 352] | 4.56 | 0.45 | 0.52 | 4.2 | 2.2 |
| COc1cc(CN2CCN(C3CC4(C3)CN(c3ccc(C(=O)NS(=O)(=O)c5ccc(NC[C@H]6CC[C@](C)(O)CC6)c([N+](=O)[O-])c5)c(Oc5cnc6[nH]cc(F)c6c5)c3)C4)[C@H](c3ccccc3C(C)C)C2)cc2c1OCCC2(F)F [Example 354, 4-(6-((R)-4-((4,4-difluoro-8-methoxychroman-6-yl)methyl)-2-(2-isopropylphenyl)piperazin-1-yl)-2-azaspiro[3.3]heptan-2-yl)-2-((3-fluoro-1H-pyrrolo[2,3-b]pyridin-5-yl)oxy)-N-((4-((((1r,4r)-4-hydroxy-4-methylcyclohexyl)methyl)amino)-3-nitrophenyl)sulfonyl)benzamide] | 3 | 0.14 | 0.9 | 2.2 | 1.9 |
